In US4746648A, “Peptide derivatives which inhibit renin and acid proteases” (Sanofi; Institut National de la Recherche Medicale, priority 1985, dated 1988):
Starred links: 1 amine or outer side, 2 acyl side, 3 side chain; linkers in the order of their positions; H or OH if unused. Non-standard residues stand in square brackets, D forms with d. Residues, ends and D or L forms follow the SMILES beside them. ξ: configuration not given here. *: point of attachment. X9 = CCn1cnc(C[C@H](N[*:1])C(=O)[*:2])c1; His(τ-Me) = Cn1cnc(C[C@H](N)C(=O)O)c1; Sta = CC(C)C[C@H](N)[C@@H](O)CC(=O)O; X10 = Cc1nc(C(N[*:1])C(=O)[*:2])cs1; Gly(cPent) = N[C@H](C(=O)O)C1CCCC1; Phg = N[C@H](C(=O)O)c1ccccc1; ξ3Pal = NC(Cc1cccnc1)C(=O)O; ξ4Pal = NC(Cc1ccncc1)C(=O)O; Isovaleryl = CC(C)CC(=O)*; Boc = CC(C)(C)OC(=O)*; OBn = c1ccc(CO*)cc1; X4 = c1ccc(C*)nc1; tBu = CC(C)(C)*

The compounds below were run against T1, human plasma renin activity (PRA) (Homo sapiens, UniProt P00797) (assay: Inhibition of human plasma renin activity (PRA) in vitro, angiotensin I released measured by radioimmunoassay). Conditions: human plasma pool rich in renin, 60 min at 37° C., phosphate buffer pH 7.4; -log IC50.
T1 construct: from tissue; host or cells: human plasma pool
T1 sequence (P00797 67-406): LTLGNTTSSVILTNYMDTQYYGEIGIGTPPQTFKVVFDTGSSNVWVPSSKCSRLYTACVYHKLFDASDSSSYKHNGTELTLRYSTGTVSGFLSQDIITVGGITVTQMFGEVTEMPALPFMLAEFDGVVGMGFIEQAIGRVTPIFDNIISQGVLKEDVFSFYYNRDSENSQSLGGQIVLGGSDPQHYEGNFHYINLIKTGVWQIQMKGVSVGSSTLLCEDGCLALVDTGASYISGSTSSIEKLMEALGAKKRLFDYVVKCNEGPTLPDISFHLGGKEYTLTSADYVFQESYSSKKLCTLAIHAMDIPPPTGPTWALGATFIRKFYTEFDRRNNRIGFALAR
Format: biochemical
Protocol: Human plasma contains the substrate angiotensinogen and the enzyme renin. […] An inhibitor of the conversion enzyme, phenylmethylsulfonyl fluoride (PMSF), is added to the incubation medium.
420 microliters of human plasma
11 to 50 microliters of the product to be studied, at variable concentrations
A solution of acetic acid in methanol (19/1 by volume) and a solution of sodium hydroxide in methanol (2/1 by volume) are prepared. In a mixture of equal volumes of these 2 solutions, a 0.001M stock solution of the peptide is prepared. The subsequent dilutions of the peptide are then made up in the phosphate buffer.
The results are expressed by their logarithmic value (-log IC50).

Compound | Inhibition of human PRA -log IC50 M pH 7.4
Boc--Phe--(1-methylimidazol-2-yl)Ala--AHPPA--Ala--Sta--OCH3 [SR 43428] | 6.16 -log M
Boc-Phe-(Pyr-2)Ala-Sta-Leu-Phe-OMe [SR 43150] | 5.21 -log M

Same assay, conditions: human plasma pool rich in renin, 60 min at 37° C., phosphate buffer pH 7.4; -log IC50; listed as 41 151

Compound | Inhibition of human PRA -log IC50 M pH 7.4
Boc-Phe-(Pyr-2)Ala-Sta-Leu-Phe-OMe [SR 43151] | 6.66 -log M

Same assay, conditions: read-out: Inhibition of human PRA -log IC50 M pH 7.4 (converted)

IC50 [nM] | Compound
93.3 | COC(=O)C[C@H](O)[C@H](CC(C)C)NC(=O)[C@H](C)NC(=O)C[C@H](O)[C@H](CC(C)C)NC(=O)[C@@H](NC(=O)[C@H](Cc1ccccc1)NC(=O)OC(C)(C)C)c1ccccc1 [SR 42823, Boc--Phe--Phg--Sta--Ala--Sta--OMe] (Boc-F[Phg][Sta]A[Sta]-OMe)
398 | COC(=O)[C@H](CC(C)C)NC(=O)[C@H](C)NC(=O)C[C@H](O)[C@H](CC(C)C)NC(=O)[C@H](CC(=O)OCc1ccccc1)NC(=O)[C@H](Cc1ccccc1)NC(=O)OC(C)(C)C [SR 42926, Boc-Phe-(PhCH2)Asp-Sta-Ala-Leu-OMe] (Boc-FD(OBn)[Sta]AL-OMe)
1320 | COC(=O)[C@H](Cc1ccccc1)NC(=O)[C@H](CC(C)C)NC(=O)C[C@H](O)[C@H](CC(C)C)NC(=O)C(Cc1ccncc1)NC(=O)[C@H](Cc1ccccc1)NC(=O)OC(C)(C)C (stereo partly drawn) [SR 43144, Boc-Phe-(Pyr-4)Ala-Sta-Leu-Phe-OMe] (Boc-F[ξ4Pal][Sta]LF-OMe)
2140 | COC(=O)C[C@H](O)[C@H](CC(C)C)NC(=O)[C@H](C)NC(=O)C[C@H](O)[C@H](CC(C)C)NC(=O)[C@H](COC(C)(C)C)NC(=O)[C@H](Cc1ccccc1)NC(=O)OC(C)(C)C [SR 43297, Boc--Phe--((CH3)3 CO)Ser--Sta--Ala--Sta--OMe] (Boc-FS(tBu)[Sta]A[Sta]-OMe)
316 | COC(=O)C[C@H](O)[C@H](CC(C)C)NC(=O)[C@H](C)NC(=O)C[C@H](O)[C@H](CC(C)C)NC(=O)[C@H](COCc1ccccn1)NC(=O)[C@H](Cc1ccccc1)NC(=O)OC(C)(C)C [SR 43555, Boc--Phe--((Pyr--2)CH2 O)Ser--Sta--Ala--Sta--OMe] (Boc-FS(X4)[Sta]A[Sta]-OMe)

The remaining lines, values behind:

Compound | IC50 [nM]
COC(=O)[C@H](CC(C)C)NC(=O)[C@H](C)NC(=O)C[C@H](O)[C@H](CC(C)C)NC(=O)C(NC(=O)[C@H](Cc1ccccc1)NC(=O)OC(C)(C)C)c1csc(C)n1 (stereo partly drawn) [SR 43059, Boc-Phe-(2-methylthiazol-4-yl)Gly-Sta-Ala-Leu-OMe] (Boc-F[X10][Sta]AL-OMe) | 3020
COC(=O)[C@H](Cc1ccccc1)NC(=O)[C@H](CC(C)C)NC(=O)C[C@H](O)[C@H](CC(C)C)NC(=O)C(Cc1cccnc1)NC(=O)[C@H](Cc1ccccc1)NC(=O)OC(C)(C)C (stereo partly drawn) [SR 43064, Boc-Phe-(Pyr-3)Ala-Sta-Leu-Phe-OMe] (Boc-F[ξ3Pal][Sta]LF-OMe) | 316
CCn1cnc(C[C@H](NC(=O)[C@H](Cc2ccccc2)NC(=O)OC(C)(C)C)C(=O)N[C@@H](CC(C)C)[C@@H](O)CC(=O)N[C@@H](C)C(=O)N[C@@H](CC(C)C)[C@@H](O)CC(=O)OC)c1 [SR 43391, Boc--Phe--(tauEt)His--Sta--Ala--Sta--OMe] (Boc-F[X9][Sta]A[Sta]-OMe) | 64.6
COC(=O)C[C@H](O)[C@H](CC(C)C)NC(=O)[C@H](C)NC(=O)C[C@H](O)[C@H](CC(C)C)NC(=O)C(Cc1cccnc1)NC(=O)[C@H](Cc1ccccc1)NC(=O)OC(C)(C)C (stereo partly drawn) [SR 43429, Boc-Phe-(Pyr-3)Ala-Sta-Ala-Sta-OMe] (Boc-F[ξ3Pal][Sta]A[Sta]-OMe) | 417
COC(=O)C[C@H](O)[C@H](CC(C)C)NC(=O)[C@H](C)NC(=O)C[C@H](O)[C@H](CC(C)C)NC(=O)[C@@H](NC(=O)[C@H](Cc1ccccc1)NC(=O)OC(C)(C)C)C1CCCC1 [SR 43554, Boc--Phe--Cpg--Sta--Ala--Sta--OMe] (Boc-F[Gly(cPent)][Sta]A[Sta]-OMe) | 37.2
CC(C)CC(=O)N[C@@H](Cc1ccccc1)C(=O)N[C@@H](Cc1cn(C)cn1)C(=O)N[C@@H](CC(C)C)[C@@H](O)CC(=O)N[C@@H](C)C(=O)N[C@@H](CC(C)C)[C@@H](O)CC(=O)O [SR 43761, iVa--Phe--(tauMe)His--Sta--Ala--Sta--OH] (Isovaleryl-F[His(τ-Me)][Sta]A[Sta]-OH) | 151
